The values below come from patent US11214803B2, “Modulators of YAP1 expression” (Ionis Pharmaceuticals, Inc., priority 2019, dated 2022).

Strand notation (5' to 3'): a small letter for the sugar, then the base; units joined by * are phosphorothioate-linked, units joined directly phosphodiester-linked; [ ] holds rarer units or linkages, { } end groups; capitals alone tell only the bases. e = 2'-O-(2-methoxyethyl) (MOE); k = constrained ethyl (cEt); [5mC] = 5-methylcytosine; d = 2'-deoxy (DNA)

One data set relates to Yap1 mRNA. The experiment in a line: Antisense inhibition of human Yap1 in SNU-449 cells by modified oligonucleotides, single dose (Example 5, RTS36584). Conditions: Table 48; Yap1 mRNA level relative to untreated control; modified oligonucleotides targeting SEQ ID NO.: 1 and 2. Format: cell-based. Summed up: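 SNU-449 cells (10,000/well) took up 2,000 nM oligonucleotide by free uptake for about 48 h. Yap1 mRNA was measured by qRT-PCR with primer probe set RTS36584 and normalised to RIBOGREEN total RNA. Values are % of untreated control; asterisked oligos target the amplicon region.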
As for “1198317 (kT*kT*kG*dG*dA*dA*dG*dA*dT*d[5mC]*dT*dG*kA*eA*kA*e[5mC]; antisense) [Compound 1198317]”, the “YAP1 (% UT)” value was 74 % UT.

Consider “1198318 (kT*kT*kT*dG*dG*dA*dA*dG*dA*dT*d[5mC]*dT*kG*eA*kA*eA; antisense) [Compound 1198318]”, for which the “YAP1 (% UT)” value worked out at 120 % UT.

As to “1198319 (k[5mC]*kT*kT*dT*dG*dG*dA*dA*dG*dA*dT*d[5mC]*kT*eG*kA*eA; antisense) [Compound 1198319]”, the “YAP1 (% UT)” value is on record as 47 % UT.

With “1198320 (kG*k[5mC]*kT*dT*dT*dG*dG*dA*dA*dG*dA*dT*k[5mC]*eT*kG*eA; antisense) [Compound 1198320]”, the “YAP1 (% UT)” value was determined as 26 % UT.

As to “1198321 (kT*kG*k[5mC]*dT*dT*dT*dG*dG*dA*dA*dG*dA*kT*e[5mC]*kT*eG; antisense) [Compound 1198321]”, the “YAP1 (% UT)” value stood at 45 % UT.

In the case of “1198322 (kG*kT*kG*d[5mC]*dT*dT*dT*dG*dG*dA*dA*dG*kA*eT*k[5mC]*eT; antisense) [Compound 1198322]”, the “YAP1 (% UT)” value is 48 % UT.

With “1198323 (kA*kG*kT*dG*d[5mC]*dT*dT*dT*dG*dG*dA*dA*kG*eA*kT*e[5mC]; antisense) [Compound 1198323]”, the “YAP1 (% UT)” value is 32 % UT.

Take “1198324 (kA*kT*kA*dG*dT*dG*d[5mC]*dT*dT*dT*dG*dG*kA*eA*kG*eA; antisense) [Compound 1198324]”: the “YAP1 (% UT)” value amounted to 53 % UT.

In the case of “1198325 (kA*kG*kG*dA*dT*dG*d[5mC]*dA*dT*dG*dG*dT*kT*eT*kT*eT; antisense) [Compound 1198325]”, the “YAP1 (% UT)” value is 34 % UT.

For “1198326 (kT*kT*kA*dG*dG*dA*dT*dG*d[5mC]*dA*dT*dG*kG*eT*kT*eT; antisense) [Compound 1198326]”, the “YAP1 (% UT)” value is on record as 84 % UT.

Regarding “1198327 (kT*kT*kT*dA*dG*dG*dA*dT*dG*d[5mC]*dA*dT*kG*eG*kT*eT; antisense) [Compound 1198327]”, the “YAP1 (% UT)” value is reported as 29 % UT.

Consider “1198328 (kA*kT*kT*dT*dA*dG*dG*dA*dT*dG*d[5mC]*dA*kT*eG*kG*eT; antisense) [Compound 1198328]”, for which the “YAP1 (% UT)” value turned out to be 42 % UT.

On to “1198329 (kG*kA*kT*dT*dT*dA*dG*dG*dA*dT*dG*d[5mC]*kA*eT*kG*eG; antisense) [Compound 1198329]”, for which the “YAP1 (% UT)” value is reported as 36 % UT.

In the case of “1198331 (k[5mC]*kA*kG*dA*dT*dT*dT*dA*dG*dG*dA*dT*kG*e[5mC]*kA*eT; antisense) [Compound 1198331]”, the “YAP1 (% UT)” value is given as 26 % UT.

As to “1198332 (kT*k[5mC]*kA*dG*dA*dT*dT*dT*dA*dG*dG*dA*kT*eG*k[5mC]*eA; antisense) [Compound 1198332]”, the “YAP1 (% UT)” value is 58 % UT.

Regarding “1198333 (kA*kT*kT*d[5mC]*dA*dG*dA*dT*dT*dT*dA*dG*kG*eA*kT*eG; antisense) [Compound 1198333]”, the “YAP1 (% UT)” value amounted to 77 % UT.

For the substance “1198343 (kA*kT*kT*dG*d[5mC]*dA*dA*dT*d[5mC]*dT*dG*dT*k[5mC]*eT*kG*eA; antisense) [Compound 1198343]”, the “YAP1 (% UT)” value is given as 39 % UT.

As for “1198344 (kA*kT*kA*dT*dT*dG*d[5mC]*dA*dA*dT*d[5mC]*dT*kG*eT*k[5mC]*eT; antisense) [Compound 1198344]”, the “YAP1 (% UT)” value is listed as 55 % UT.

As to “1198345 (kA*kA*kT*dA*dT*dT*dG*d[5mC]*dA*dA*dT*d[5mC]*kT*eG*kT*e[5mC]; antisense) [Compound 1198345]”, the “YAP1 (% UT)” value stood at 75 % UT.

Regarding “1198346 (kT*kA*kA*dT*dA*dT*dT*dG*d[5mC]*dA*dA*dT*k[5mC]*eT*kG*eT; antisense) [Compound 1198346]”, the “YAP1 (% UT)” value was found to be 40 % UT.

With “1198347 (kG*kT*kA*dA*dT*dA*dT*dT*dG*d[5mC]*dA*dA*kT*e[5mC]*kT*eG; antisense) [Compound 1198347]”, the “YAP1 (% UT)” value was 14 % UT.

Turning to “1198348 (kT*kG*kT*dA*dA*dT*dA*dT*dT*dG*d[5mC]*dA*kA*eT*k[5mC]*eT; antisense) [Compound 1198348]”, the “YAP1 (% UT)” value was found to be 40 % UT.

The data set is the same for the next values; noted with them: Table 49; Yap1 mRNA level relative to untreated control; modified oligonucleotides targeting SEQ ID NO.: 1 and 2.
As to “1198334 (kA*kT*kA*dT*dG*dG*dT*dT*dT*dT*dG*dT*kG*eT*kG*eT; antisense) [Compound 1198334]”, the “YAP1 (% UT)” value came out at 57 % UT.

Take “1198335 (kT*kT*kA*dT*dA*dT*dG*dG*dT*dT*dT*dT*kG*eT*kG*eT; antisense) [Compound 1198335]”: the “YAP1 (% UT)” value is on record as 26 % UT.

Turning to “1198336 (k[5mC]*kT*kT*dA*dT*dA*dT*dG*dG*dT*dT*dT*kT*eG*kT*eG; antisense) [Compound 1198336]”, the “YAP1 (% UT)” value is recorded as 31 % UT.

In the case of “1198337 (kT*k[5mC]*kT*dT*dA*dT*dA*dT*dG*dG*dT*dT*kT*eT*kG*eT; antisense) [Compound 1198337]”, the “YAP1 (% UT)” value was found to be 26 % UT.

On to “1198338 (k[5mC]*kT*k[5mC]*dT*dT*dA*dT*dA*dT*dG*dG*dT*kT*eT*kT*eG; antisense) [Compound 1198338]”, for which the “YAP1 (% UT)” value is reported as 24 % UT.

Take “1198339 (kA*k[5mC]*kT*d[5mC]*dT*dT*dA*dT*dA*dT*dG*dG*kT*eT*kT*eT; antisense) [Compound 1198339]”: the “YAP1 (% UT)” value was 25 % UT.

In the case of “1198340 (kA*kA*k[5mC]*dT*d[5mC]*dT*dT*dA*dT*dA*dT*dG*kG*eT*kT*eT; antisense) [Compound 1198340]”, the “YAP1 (% UT)” value amounted to 123 % UT.

On to “1198341 (k[5mC]*kA*kA*d[5mC]*dT*d[5mC]*dT*dT*dA*dT*dA*dT*kG*eG*kT*eT; antisense) [Compound 1198341]”, for which the “YAP1 (% UT)” value is 90 % UT.

As to “1198342 (kG*kA*k[5mC]*dA*dA*d[5mC]*dT*d[5mC]*dT*dT*dA*dT*kA*eT*kG*eG; antisense) [Compound 1198342]”, the “YAP1 (% UT)” value is 101 % UT.

With “1198349 (kA*kT*kG*dT*dA*dA*dT*dA*dT*dT*dG*d[5mC]*kA*eA*kT*e[5mC]) [Compound 1198349]”, the “YAP1 (% UT)” value was 85 % UT.

Regarding “1198350 (kT*kA*kT*dG*dT*dA*dA*dT*dA*dT*dT*dG*k[5mC]*eA*kA*eT; antisense) [Compound 1198350]”, the “YAP1 (% UT)” value was determined as 83 % UT.

As for “1198351 (kT*kT*kT*dA*dT*dG*dT*dA*dA*dT*dA*dT*kT*eG*k[5mC]*eA; antisense) [Compound 1198351]”, the “YAP1 (% UT)” value came to 40 % UT.

Turning to “1198352 (kT*kG*kT*dA*dT*dG*dT*d[5mC]*dA*dG*dA*dA*kG*eA*kG*eT; antisense) [Compound 1198352]”, the “YAP1 (% UT)” value turned out to be 7 % UT.

For “1198353 (kA*kG*kT*dG*dT*dA*dT*dG*dT*d[5mC]*dA*dG*kA*eA*kG*eA; antisense) [Compound 1198353]”, the “YAP1 (% UT)” value is 8 % UT.

As for “1198354 (kA*kA*kG*dT*dG*dT*dA*dT*dG*dT*d[5mC]*dA*kG*eA*kA*eG; antisense) [Compound 1198354]”, the “YAP1 (% UT)” value came out at 6 % UT.

On to “1198355 (kA*kA*kA*dG*dT*dG*dT*dA*dT*dG*dT*d[5mC]*kA*eG*kA*eA; antisense) [Compound 1198355]”, for which the “YAP1 (% UT)” value came to 6 % UT.

With “1198356 (kT*kA*kA*dA*dG*dT*dG*dT*dA*dT*dG*dT*k[5mC]*eA*kG*eA; antisense) [Compound 1198356]”, the “YAP1 (% UT)” value worked out at 5 % UT.

For the substance “1198357 (kT*kT*kA*dA*dA*dG*dT*dG*dT*dA*dT*dG*kT*e[5mC]*kA*eG; antisense) [Compound 1198357]”, the “YAP1 (% UT)” value was 21 % UT.

With “1198358 (kT*kT*kT*dA*dA*dA*dG*dT*dG*dT*dA*dT*kG*eT*k[5mC]*eA; antisense) [Compound 1198358]”, the “YAP1 (% UT)” value is given as 15 % UT.

Take “1198359 (k[5mC]*kT*kT*dT*dA*dA*dA*dG*dT*dG*dT*dA*kT*eG*kT*e[5mC]; antisense) [Compound 1198359]”: the “YAP1 (% UT)” value came out at 28 % UT.

Take “1198360 (kA*kA*k[5mC]*dT*dT*dT*dA*dA*dA*dG*dT*dG*kT*eA*kT*eG; antisense) [Compound 1198360]”: the “YAP1 (% UT)” value came to 74 % UT.

“1198361 (kT*kA*kA*dG*dG*dT*dT*dT*d[5mC]*d[5mC]*d[5mC]*dA*kG*eA*kT*eT; antisense) [Compound 1198361]”: the “YAP1 (% UT)” value turned out to be 39 % UT.

As for “1198362 (kA*kG*kT*dA*dA*dG*dG*dT*dT*dT*d[5mC]*d[5mC]*k[5mC]*eA*kG*eA; antisense) [Compound 1198362]”, the “YAP1 (% UT)” value was determined as 24 % UT.

For the substance “1198363 (kA*kA*kG*dT*dA*dA*dG*dG*dT*dT*dT*d[5mC]*k[5mC]*e[5mC]*kA*eG; antisense) [Compound 1198363]”, the “YAP1 (% UT)” value was found to be 55 % UT.

Take “1198364 (kT*kA*kA*dG*dT*dA*dA*dG*dG*dT*dT*dT*k[5mC]*e[5mC]*k[5mC]*eA; antisense) [Compound 1198364]”: the “YAP1 (% UT)” value was 29 % UT.

In the case of “1198365 (k[5mC]*kT*kA*dA*dG*dT*dA*dA*dG*dG*dT*dT*kT*e[5mC]*k[5mC]*e[5mC]; antisense) [Compound 1198365]”, the “YAP1 (% UT)” value came to 13 % UT.

As to “1198366 (kA*k[5mC]*kT*dA*dA*dG*dT*dA*dA*dG*dG*dT*kT*eT*k[5mC]*e[5mC]; antisense) [Compound 1198366]”, the “YAP1 (% UT)” value worked out at 45 % UT.

On to “1198367 (kG*kA*k[5mC]*dT*dA*dA*dG*dT*dA*dA*dG*dG*kT*eT*kT*e[5mC]; antisense) [Compound 1198367]”, for which the “YAP1 (% UT)” value is 58 % UT.

With “1198368 (kA*kG*kA*d[5mC]*dT*dA*dA*dG*dT*dA*dA*dG*kG*eT*kT*eT; antisense) [Compound 1198368]”, the “YAP1 (% UT)” value was determined as 79 % UT.

“1198369 (kT*kT*kA*dG*dA*d[5mC]*dT*dA*dA*dG*dT*dA*kA*eG*kG*eT; antisense) [Compound 1198369]”: the “YAP1 (% UT)” value came to 51 % UT.
